Cn1ncnc1COc1nn2c(-c3cnccn3)nnc2cc1-c1ccccc1 [Example 2, 6-(2-Methyl-2H-1,2,4-triazol-3-ylmethoxy)-7-phenyl-3-(pyrazin-2-yl)-1,2,4-triazolo[4,3-b]pyridazine]
melting point: 264 °C

c1ccc(-c2cc3nnc(-c4cnccn4)n3nc2OCc2nc[nH]n2)cc1 [Example 3, 7-Phenyl-3-(pyrazin-2-yl)-6-(1H-1,2,4-triazol-3-ylmethoxy)-1,2,4-triazolo[4,3-b]pyridazine]
melting point: 255 °C

Cc1cc(-c2nnc3cc(C(C)(C)C)c(OCc4ncn(C)n4)nn23)no1 [Example 6, 7-t-Butyl-3-(5-methylisoxazol-3-yl)-6-(1-methyl-1.2 4-triazol-3-yl)methyloxy-1,2,4-triazolo[4,3-b]pyridazine]
melting point: 221 to 223 °C

Cc1cc(-c2nnc3cc(C(C)(C)C)c(OCc4cn(C)nn4)nn23)no1 [Example 7, 7-t-Butyl-3-(5-methylisoxazol-3-yl)-6-(1-methyl-1.2.3-triazol-4-yl)methyloxy-1,2,4-triazolo[4,3-b]pyridazine]
melting point: 219 to 221 °C

Source: patent publication US6444666B1, “Triazolopyridazine Derivatives for treating anxiety and enhancing cognition” (Merck Sharp & Dohme Ltd., priority 1997, dated 2002)
